From US20200393446A1, “BIOLUMINESCENT SCREENING TEST FOR DETECTING CELL CYTOLYSIS” (Centre National de la Recherche Scientifique (CNRS), priority 2017, published 2020) come the findings set out here.

For one data set, the system named is NK cells. The data set is described as follows: NK cell cytotoxicity assay: NanoLuc release from K562-NanoLuc cells co-cultured with compound-treated PBMC. The following applies: PBMCs incubated 16 hours with Clobenpropit, 400,000 PBMCs/16,000 K562-NanoLuc, four hours of co-culture, FIG. 3B. It is filed as cell-based, human. Here is the method: PBMC from healthy donors were incubated overnight in the absence or presence of compounds to be tested. Unless specified otherwise, PBMC were plated in 96-well round-bottom plates at a concentration of 400,000 cells/well in a final volume of 100 μL. After 16 hours, 16.000 K562-NanoLuc or twINNE cells were added to cultures wells (100 μL of cell suspension at 160,000 cells/ml). Total volume in culture wells was 200 μL, and plates were centrifuged briefly for 2 min at 1,200 rpm. Unless specified otherwise, 20 μL of culture supernatants were collected and NanoLuc activity was determined by adding 40 μL of RPMI-1640 and 30 μL of NanoLuc reagent (Promega) in black, flat-bottom, 96½-well plates. Bioluminescence was measured during 0.1 s with a luminometer (Enspire; Perkin Elmer).

In another data set the test system is K562-NanoLuc cells. The data set is described as follows: Lysis of K562-NanoLuc cells by detergent, NanoLuc activity in supernatant. The class given is cell-based, human. The following applies: cells contacted with detergent, FIG. 1A.

In the case of `NC(=NCc1ccc(Cl)cc1)SCCCc1cnc[nH]1` [Clobenpropit], the “cytolytic activity of NK cells (NanoLuc activity in supernatant)” value with NK cells is “completely inhibited”.

Take NP40: in the data set with K562-NanoLuc cells, the “activity of the NanoLuc enzyme in the supernatant of K562-NanoLuc cells” value was “increased”.
